Laboratory results taken from ChEMBL document CHEMBL5550186, “Exploring the Potential of Cyclic Peptidyl Antitumor Agents Derived from Natural Macrocyclic Peptide Phakellistatin 13” (J Med Chem, 2024).
Calls of active or inactive are those of the source. The calls are words filed in the database; no cut-off is given here.

What was measured:
[1] = tested on: HepG2; assay: Induction of morphological changes in human HepG2 cells assessed as cell shrinkage at 40 uM measured after 12 to 24 hrs by fluorescence inverted microscopic analysis; type: functional, cell-based; conditions: time 12-24 hrs
[2] = tested on: 4T1; assay: Antitumor activity in mouse 4T1 cells xenografted in Balb/c mouse assessed as inhibition of tumor growth at 6 mg/kg, iv measured every two days for 14 days; type: functional, organism-based; conditions: time 14.0 day
[3] = Upregulation of FGF21 expression level in human HepG2 cells assessed as fold change by KEGG enrichment analysis; type: functional
[4] = tested on: HepG2; assay: Induction of cell cycle arrest in human HepG2 cells assessed as accumulation of cells at 2N phase at 10 uM incubated for 24 hrs by PI staining based flow cytometry analysis (reference value: 26.0%); type: functional
[5] = tested on: HepG2; assay: Induction of apoptosis in human HepG2 cells assessed as viable cells at 20 uM incubated for 48 hrs by annexin V-FITC/PI staining based flow cytometry analysis (reference value: 99.3%); type: functional; conditions: read-out: Activity
[6] = tested on: HepG2; assay: Induction of cell cycle arrest in human HepG2 cells assessed as accumulation of cells at >G2/M phase at 5 uM incubated for 48 hrs by PI staining based flow cytometry analysis (reference value: 28.0%); type: functional
[7] = Apparent permeability of compound; type: ADME; conditions: not told
[8] = Upregulation of ATF4 expression level in human HepG2 cells assessed as fold change by KEGG enrichment analysis; type: functional
[9] = Upregulation of IL1A expression level in human HepG2 cells assessed as fold change by KEGG enrichment analysis; type: functional
[10] = tested on: HepG2; assay: Induction of cell cycle arrest in human HepG2 cells assessed as accumulation of cells at >G2/M phase at 10 uM incubated for 48 hrs by PI staining based flow cytometry analysis (reference value: 28.0%); type: functional
[11] = Upregulation of TRAF1 expression level in human HepG2 cells assessed as fold change by KEGG enrichment analysis; type: functional
[12] = tested on: HepG2; assay: Induction of cell cycle arrest in human HepG2 cells assessed as accumulation of cells at >G2/M phase at 20 uM incubated for 48 hrs by PI staining based flow cytometry analysis (reference value: 28.0%); type: functional
[13] = tested on: HepG2; assay: Induction of apoptosis in human HepG2 cells assessed as early apoptotic cells at 10 uM incubated for 48 hrs by annexin V-FITC/PI staining based flow cytometry analysis (reference value: 0.50%); type: functional
[14] = tested on: Cell membrane; assay: Induction of mitochondrial membrane potential loss in human HepG2 cells assessed as decrease in fluorescence at 20 uM measured after 48 hrs by Rhodamine 123 staining based flow cytometry (reference value: 66.8%); type: cell membranes; set-up: scale not given: the % may be the effect or the level left
[15] = tested on: HepG2; assay: Downregulation of MDM2 level in human HepG2 cells at 5 to 20 uM measured after 48 hrs by Western blot analysis; type: functional, cell-based; conditions: dose 5-20 µM
[16] = Toxicity in Balb/c mouse assessed as effect on body weight at 6 mg/kg, iv measured every two days for 14 days; type: organism-based; conditions: in vivo, 336 h, time 14 day
[17] = tested on: HepG2; assay: Induction of morphological changes in human HepG2 cells assessed as decrease in cell adhesion at 40 uM measured after 12 to 24 hrs by fluorescence inverted microscopic analysis; type: functional, cell-based; conditions: time 12-24 hrs
[18] = Upregulation of DET1 expression level in human HepG2 cells assessed as fold change by KEGG enrichment analysis; type: functional
[19] = […] of CCND1 expression level in human HepG2 cells assessed as fold change by KEGG enrichment analysis; type: functional
[20] = tested on: HepG2; assay: Induction of cell cycle arrest in human HepG2 cells assessed as accumulation of cells at 2N phase at 5 uM incubated for 48 hrs by PI staining based flow cytometry analysis (reference value: 26.0%); type: functional
[21] = tested on: HepG2; assay: Induction of cell cycle arrest in human HepG2 cells assessed as assessed as accumulation of cells at G2/M phase at 10 uM incubated for 12 hrs by PI staining based flow cytometry analysis (reference value: 6.38%); type: functional
[22] = tested on: HepG2; assay: Induction of apoptosis in human HepG2 cells assessed as early apoptotic cells at 20 uM incubated for 48 hrs by annexin V-FITC/PI staining based flow cytometry analysis (reference value: 0.50%); type: functional
[23] = tested on: HepG2; assay: Induction of apoptosis in human HepG2 cells assessed as increase in caspase 3 activity at 5 to 10 uM measured after 24 hrs by green-nuc staining based fluorescence microscopic analysis; type: functional, cell-based; conditions: dose 5-10 µM
[24] = tested on: HepG2; assay: Induction of cell cycle arrest in human HepG2 cells assessed as assessed as accumulation of cells at S phase at 10 uM incubated for 12 hrs by PI staining based flow cytometry analysis (reference value: 39.6%); type: functional
[25] = tested on: HepG2; assay: Induction of cell cycle arrest in human HepG2 cells assessed as accumulation of cells at G2/M phase at 20 uM incubated for 48 hrs by PI staining based flow cytometry analysis (reference value: 6.38%); type: functional
[26] = Downregulation of RSPO3 expression level in human HepG2 cells assessed as fold change by KEGG enrichment analysis; type: functional
[27] = Upregulation of DDIT3 expression level in human HepG2 cells assessed as fold change by KEGG enrichment analysis; type: functional
[28] = tested on: HepG2; assay: Induction of autophagy in human HepG2 cells assessed as increase in formation of autophagosomes at 5 to 10 uM incubated for 24 hrs by acridine orange staining based laser confocal microscopic analysis; type: functional, cell-based; conditions: dose 5-10 µM
[29] = tested on: Cell membrane; assay: Induction of mitochondrial membrane potential loss in human HepG2 cells assessed as decrease in fluorescence at 10 uM measured after 48 hrs by Rhodamine 123 staining based flow cytometry (reference value: 66.8%); type: cell membranes; set-up: scale not given: the % may be the effect or the level left
[30] = tested on: HepG2; assay: Induction of cell cycle arrest in human HepG2 cells assessed as accumulation of cells at 2N phase at 10 uM incubated for 48 hrs by PI staining based flow cytometry analysis (reference value: 26.0%); type: functional
[31] = Downregulation of DKK1 expression level in human HepG2 cells assessed as fold change by KEGG enrichment analysis; type: functional
[32] = Upregulation of SESN2 expression level in human HepG2 cells assessed as fold change by KEGG enrichment analysis; type: functional
[33] = tested on: HepG2; assay: Antiproliferative activity against human HepG2 cells incubated for 48 hrs by MTT assay; type: functional, cell-based; conditions: HepG2, 48 h
[34] = tested on: HepG2; assay: Induction of apoptosis in human HepG2 cells assessed as viable cells at 10 uM incubated for 48 hrs by annexin V-FITC/PI staining based flow cytometry analysis (reference value: 99.3%); type: functional; conditions: read-out: Activity
[35] = tested on: HepG2; assay: Induction of cell cycle arrest in human HepG2 cells assessed as accumulation of cells at <2N phase at 10 uM incubated for 48 hrs by PI staining based flow cytometry analysis (reference value: 0.027%); type: functional
[36] = in vitro; conditions: human, Caco-2
Description: Apparent permeability of compound in human Caco-2 cells at 10 uM measured upto 120 mins by LC-MS/MS analysis

[37] = tested on: HepG2; assay: Induction of cell cycle arrest in human HepG2 cells assessed as accumulation of cells at <2N phase at 5 uM incubated for 48 hrs by PI staining based flow cytometry analysis (reference value: 0.027%); type: functional
[38] = tested on: BEL-7404 tumor cell line; assay: Antiproliferative activity against human BEL-7404 tumor cell line incubated for 48 hrs by MTT assay; type: functional, cell-based; conditions: BEL-7404, 48 h

With `CC(C)C[C@H]1NC(=O)[C@H]([C@@H](C)OCc2ccccc2)NC(=O)[C@H]2CCCN2C(=O)CN2C(=O)c3ccccc3[C@@]2(O)CN(Cc2ccccc2)C(=O)[C@H](Cc2ccccc2)NC(=O)[C@H]2CCCN2C(=O)[C@H](Cc2c[nH]c3ccccc23)NC1=O` the Activity [1] was “Active”, the Activity [2] was “Active” and the “fold change (FC)” value [3] was 9.022. For the same compound, the Activity [4] was 23.3%, the viability at 20 µM [5] was 52% and the Activity [6] was 2.76%. The Papp [7] was 0.416 ×10⁻⁶ cm/s, the “fold change (FC)” value [8] was 1.43 and the “fold change (FC)” value [9] was 2.186. For the same compound, the Activity [10] was 0%, the “fold change (FC)” value [11] was 1.094 and the Activity [12] was 1.12%. The Activity [13] was 27.3%, the Activity [14] was 18.4% and the Activity [15] was “Active”. For the same compound, the Activity [16] was “Non-Toxic”, the Activity [17] was “Active” and the “fold change (FC)” value [18] was 1.448. The “fold change (FC)” value [19] was -1.18, the Activity [20] was 28.7% and the Activity [21] was 12.4%. The Activity [22] was 41.1%, the Activity [23] was “Active” and the Activity [24] was 18.9%. The Activity [25] was 37.1%, the “fold change (FC)” value [26] was -1.578 and the “fold change (FC)” value [27] was 1.968. The Activity [28] was “Active”, the Activity [29] was 28.8% and the Activity [30] was 33.5%. The “fold change (FC)” value [31] was -3.288, the “fold change (FC)” value [32] was 2.86 and the IC50 [33] was 11.6 µM. The viability at 10 µM [34] was 68.1%, the Activity [35] was 20.2% and the Papp at 2 h, 10 µM [36] was > 20 ×10⁻⁶ cm/s. For the same compound, the Activity [37] was 37.3% and the IC50 [38] was 17.1 µM.
